In PubChem BioAssay (NCI):
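Test compounds were applied to cells in 96-well plates for 48 hours at 5 doses. Here, GI50 denotes the concentration required for 50% inhibition of growth. Definition used: TGI = concentration required for complete inhibition of growth.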

Tests used:
Test in all cases: NCI anticancer screen, dose series, 48 h
COLO 205 colon = system: COLO 205 colon
RPMI-8226 leukemia = system: RPMI-8226 leukemia
LOX IMVI melanoma = system: LOX IMVI melanoma
NCI-H226 lung = system: NCI-H226 lung
HT29 colon = system: HT29 colon
HCT-15 colon = system: HCT-15 colon
SK-MEL-28 melanoma = system: SK-MEL-28 melanoma
SK-MEL-5 melanoma = system: SK-MEL-5 melanoma
OVCAR-8 ovarian = system: OVCAR-8 ovarian
OVCAR-4 ovarian = system: OVCAR-4 ovarian
A549 NSCLC = system: A549 NSCLC
SF-539 CNS = system: SF-539 CNS
NCI/ADR-RES ovarian = system: NCI/ADR-RES ovarian
UACC-257 melanoma = system: UACC-257 melanoma
DU-145 prostate = system: DU-145 prostate
SN12C renal = system: SN12C renal
SNB-75 CNS = system: SNB-75 CNS
MDA-MB-435 = system: MDA-MB-435
IGROV1 ovarian = system: IGROV1 ovarian
MDA-MB-231 breast = system: MDA-MB-231 breast
HOP-92 NSCLC = system: HOP-92 NSCLC
RXF 393 renal = system: RXF 393 renal
CCRF-CEM leukemia = system: CCRF-CEM leukemia
HOP-62 NSCLC = system: HOP-62 NSCLC
SF-295 CNS = system: SF-295 CNS
OVCAR-3 ovarian = system: OVCAR-3 ovarian
CAKI-1 renal = system: CAKI-1 renal
TK-10 renal = system: TK-10 renal
HCT-116 colon = system: HCT-116 colon
T-47D breast = system: T-47D breast
KM12 colon = system: KM12 colon
SF-268 CNS = system: SF-268 CNS
MCF7 breast = system: MCF7 breast
HL-60(TB) leukemia = system: HL-60(TB) leukemia
NCI-H23 lung = system: NCI-H23 lung
HS 578T breast = system: HS 578T breast
K-562 leukemia = system: K-562 leukemia
UO-31 renal = system: UO-31 renal
SW-620 colon = system: SW-620 colon
ACHN renal = system: ACHN renal
M14 melanoma = system: M14 melanoma
SR leukemia = system: SR leukemia
U251 CNS = system: U251 CNS
MOLT-4 leukemia = system: MOLT-4 leukemia
PC-3 prostate = system: PC-3 prostate
SK-MEL-2 melanoma = system: SK-MEL-2 melanoma
HCC-2998 colon = system: HCC-2998 colon
MALME-3M melanoma = system: MALME-3M melanoma
SK-OV-3 ovarian = system: SK-OV-3 ovarian
UACC-62 melanoma = system: UACC-62 melanoma
SNB-19 CNS = system: SNB-19 CNS
NCI-H522 lung = system: NCI-H522 lung
BT-549 breast = system: BT-549 breast
NCI-H460 lung = system: NCI-H460 lung
A498 renal = system: A498 renal
EKVX NSCLC = system: EKVX NSCLC
OVCAR-5 ovarian = system: OVCAR-5 ovarian
786-0 renal = system: 786-0 renal

## C/C(=C(/c1ccc(O)cc1)c1ccc(OCCN2CCCC2)cc1)c1ccccc1
COLO 205 colon
  GI50: 1.7 µM
  TGI: 3.38 µM
RPMI-8226 leukemia
  GI50: 2.4 µM
  TGI: 6.72 µM
LOX IMVI melanoma
  GI50: 1.72 µM
  TGI: 3.29 µM
NCI-H226 lung
  GI50: 11.3 µM
  TGI: 29.8 µM
HT29 colon
  GI50: 1.35 µM
  TGI: 3.2 µM
HCT-15 colon
  GI50: 1.81 µM
  TGI: 4.64 µM
SK-MEL-28 melanoma
  GI50: 1.65 µM
  TGI: 3.41 µM
SK-MEL-5 melanoma
  GI50: 1.72 µM
  TGI: 3.1 µM
OVCAR-8 ovarian
  GI50: 5.73 µM
  TGI: 23.1 µM
OVCAR-4 ovarian
  GI50: 4.7 µM
  TGI: 17.5 µM
A549 NSCLC
  GI50: 3.53 µM
  TGI: 11 µM
SF-539 CNS
  GI50: 1.81 µM
  TGI: 3.76 µM
NCI/ADR-RES ovarian
  GI50: 4.17 µM
  TGI: 18.3 µM
UACC-257 melanoma
  GI50: 2.03 µM
  TGI: 3.93 µM
DU-145 prostate
  GI50: 9.72 µM
  TGI: 21.4 µM
SN12C renal
  GI50: 9.17 µM
  TGI: 25.7 µM
SNB-75 CNS
  GI50: 3.07 µM
  TGI: 15.7 µM
MDA-MB-435
  GI50: 1.88 µM
  TGI: 4.4 µM
IGROV1 ovarian
  GI50: 6.8 µM
  TGI: 27 µM
MDA-MB-231 breast
  GI50: 3.51 µM
  TGI: 8.4 µM
HOP-92 NSCLC
  GI50: 2.24 µM
  TGI: 7.34 µM
RXF 393 renal
  GI50: 2 µM
  TGI: 5.05 µM
CCRF-CEM leukemia
  GI50: 3.2 µM
  TGI: 9.85 µM
HOP-62 NSCLC
  GI50: 2.1 µM
  TGI: 4.54 µM
SF-295 CNS
  GI50: 1.95 µM
  TGI: 4.19 µM
OVCAR-3 ovarian
  GI50: 5.66 µM
  TGI: 18.1 µM
CAKI-1 renal
  GI50: 3.02 µM
  TGI: 13.9 µM
TK-10 renal
  GI50: 4.61 µM
  TGI: 16.4 µM
HCT-116 colon
  GI50: 2.92 µM
  TGI: 10.1 µM
T-47D breast
  GI50: 0.716 µM
  TGI: 7.93 µM
KM12 colon
  GI50: 3.51 µM
  TGI: 13.2 µM
SF-268 CNS
  GI50: 5.58 µM
  TGI: 20.7 µM
MCF7 breast
  TGI: 2.72 µM
HL-60(TB) leukemia
  GI50: 2.04 µM
  TGI: 4.97 µM
NCI-H23 lung
  GI50: 4.31 µM
  TGI: 18.2 µM
HS 578T breast
  GI50: 2.96 µM
  TGI: 9.9 µM
K-562 leukemia
  GI50: 1.81 µM
  TGI: 4.77 µM
UO-31 renal
  GI50: 1.87 µM
  TGI: 5.72 µM
SW-620 colon
  GI50: 2.28 µM
  TGI: 5.17 µM
ACHN renal
  GI50: 4.28 µM
  TGI: 16.3 µM
M14 melanoma
  GI50: 1.88 µM
  TGI: 4.08 µM
SR leukemia
  GI50: 1.93 µM
  TGI: 5.75 µM
U251 CNS
  GI50: 2.24 µM
  TGI: 5.49 µM
MOLT-4 leukemia
  GI50: 2.94 µM
  TGI: 11 µM
PC-3 prostate
  GI50: 4.28 µM
  TGI: 14.7 µM
SK-MEL-2 melanoma
  GI50: 1.97 µM
  TGI: 3.95 µM
HCC-2998 colon
  GI50: 2.34 µM
  TGI: 6.18 µM
MALME-3M melanoma
  GI50: 1.7 µM
  TGI: 3.41 µM
SK-OV-3 ovarian
  GI50: 3.25 µM
  TGI: 13 µM
UACC-62 melanoma
  GI50: 2.26 µM
  TGI: 4.72 µM
SNB-19 CNS
  GI50: 2.95 µM
  TGI: 8.1 µM
NCI-H522 lung
  GI50: 2.1 µM
  TGI: 5.09 µM
BT-549 breast
  GI50: 4.2 µM
  TGI: 15.7 µM
NCI-H460 lung
  GI50: 2.36 µM
  TGI: 5.38 µM
A498 renal
  GI50: 1.67 µM
  TGI: 8.49 µM
EKVX NSCLC
  GI50: 2.46 µM
  TGI: 11.5 µM
OVCAR-5 ovarian
  GI50: 7.99 µM
  TGI: 22.5 µM
786-0 renal
  GI50: 1.86 µM
  TGI: 4.09 µM
